Experimental data published in patent US4056674A, “Derivatives of 3-deazaguanine” (priority 1975, dated 1977).
Values after ≈ are worked out from the molar mass of the structure shown. Read-outs that look alike come from different tables or passages of the source.

Key:
[1] = tested on: Parainfluenza virus, type 3; experiment: In vitro antiviral, inhibition of virus-induced CPE, PIV/3; assay type: cell-based
[2] = tested on: adenovirus, type 3; experiment: In vitro antiviral, inhibition of virus-induced cytopathogenic effect (CPE), AV/3; assay type: cell-based; conditions: KB or RK-13 cells, VR >0.5 significant, <0.5 slight antiviral activity
[3] = tested on: RV/2: rhinovirus, type 1; experiment: In vitro antiviral, inhibition of virus-induced CPE, RV/2; assay type: cell-based; conditions: KB or RK-13 cells, VR >0.5 significant, <0.5 slight antiviral activity
[4] = tested on: vesicular stomatitis virus; assay type: cell-based; conditions: VSV; KB or RK-13 cells; VR >0.5 significant, <0.5 slight antiviral activity
[5] = tested on: rhinovirus, type 8; experiment: In vitro antiviral, inhibition of virus-induced CPE, RV/8; assay type: cell-based; conditions: KB or RK-13 cells, VR >0.5 significant, <0.5 slight antiviral activity
[6] = tested on: influenza virus, type Ao; experiment: In vitro antiviral, inhibition of virus-induced CPE, IV/Ao; assay type: cell-based; conditions: KB or RK-13 cells, VR >0.5 significant, <0.5 slight antiviral activity
[7] = tested on: rhinovirus, type 1A; experiment: In vitro antiviral, inhibition of virus-induced CPE, RV/1A; assay type: cell-based; conditions: KB or RK-13 cells, VR >0.5 significant, <0.5 slight antiviral activity
[8] = tested on: rhinovirus, type 56; experiment: In vitro antiviral, inhibition of virus-induced CPE, RV/56; assay type: cell-based; conditions: KB or RK-13 cells, VR >0.5 significant, <0.5 slight antiviral activity
[9] = tested on: parainfluenza virus, type 1; experiment: In vitro antiviral, inhibition of virus-induced CPE, PIV/1; assay type: cell-based
[10] = tested on: human cytomegalovirus; experiment: In vitro antiviral, inhibition of virus-induced CPE, HCMV; assay type: cell-based; conditions: KB or RK-13 cells, VR >0.5 significant, <0.5 slight antiviral activity
[11] = tested on: herpes simplex virus, type 1; experiment: In vitro antiviral, inhibition of virus-induced CPE, HSV/1; assay type: cell-based; conditions: KB or RK-13 cells, VR >0.5 significant, <0.5 slight antiviral activity
[12] = tested on: myxoma virus; experiment: In vitro antiviral, inhibition of virus-induced CPE, MV; assay type: cell-based; conditions: KB or RK-13 cells, VR >0.5 significant, <0.5 slight antiviral activity
Experimental: In this example, compounds 3, 4, 13, 16, 20, 22, 29 and 30 were tested to determine their in vitro antiviral efficacy, using the inhibition virus-induced cytopathogenic effect (CPE) method of Sidwell, et al. (Applied Microbiology 22:797-801, 1971). Briefly, the CPE procedure includes the suspension of the antiviral agent in a cell culture medium consisting of vitamins, amino acids, serum, buffer, penicillin, streptomycin and indicator dye in water. The virus suspended in the cell culture medium was added to an established monolayer of KB cells or RK-13 cells, and an equal volume of the antiviral agent was then added within 15 minutes. The infected treated cells were graded following microscopic examination. Controls for each experiment include cell controls cells and cell culture medium only), virus controls (cell and virus cell culture medium) and toxicity controls (cells and chemical and cell culture medium).
The virus rating (VR) system of Sidwell et al., described in Applied Microbiology, supra, was used to evaluate the degree of significance of CPE inhibition.

[13] = tested on: rhinovirus, type 13; experiment: In vitro antiviral, inhibition of virus-induced CPE, RV/13; assay type: cell-based; conditions: KB or RK-13 cells, VR >0.5 significant, <0.5 slight antiviral activity
[14] = tested on: vaccinia virus; assay type: cell-based; conditions: VV; KB or RK-13 cells; VR >0.5 significant, <0.5 slight antiviral activity
[15] = tested on: pseudorabies virus; assay type: cell-based; conditions: PRV; KB or RK-13 cells; VR >0.5 significant, <0.5 slight antiviral activity
[16] = tested on: Escherichia Coli; experiment: In vivo antibacterial activity, survival of mice after intraperitoneal challenge with Escherichia coli 138; set-up: species or system white mice (ICR, COX 17 to 20 g); conditions: 7 days
Experimental: In this example compounds 7 and 23 were tested along with, as a comparison, the known antibiotic Gentamycin, to determine their in vivo antibacterial activity. Experimental infections were produced in groups of 20 white mice (ICR, COX 17 to 20 g).
*Ec 138: Tetracycline and Streptomycin
**The LD50 is the challenge that killed 50% of the infected mice; th
LD50 values for the pathogen were calculated by the method of Probit

[17] = tested on: viruses causing respiratory diseases such as influenza in man; conditions: background statement; cited from earlier work
[18] = tested on: leukemia L1210; experiment: Activity against leukemia L1210 in BDF1 female mice; assay type: in vivo; conditions: 40 mg/kg i.p., qd [1-9]
Experimental: In this example compound 30 was tested for antitumor activity in mice. […] A 10^-5 M concentration of compound 30 caused 50% inhibition of the incorporation of ^3 H-thymidine and ^3 H-uridine into the acidinsoluble fraction of L1210 cells in tissue culture. […] Ara C (cytosine arabinoside) was included as a standard.
All animals were inoculated (i.p) with 10^5 leukemic cells. Treatment
was started 24 hours after transplant. Figures in parenthesis denote 21

[19] = tested on: virus; conditions: background statement; cited from earlier work
[20] = tested on: herpes simplex virus, type 2; experiment: In vitro antiviral, inhibition of virus-induced CPE, HSV/2; assay type: cell-based; conditions: KB or RK-13 cells, VR >0.5 significant, <0.5 slight antiviral activity
[21] = tested on: Shigella; experiment: In vitro antibacterial, broth dilution assay, Shigella; assay type: cell-based; conditions: clinical isolates, 24 hr at 35°
Experimental: (§1) In this example compounds 7 and 30 were tested to determine their in vitro antibacterial activity. Clinical isolates of pathogens were used for this example. In vitro sensitivity of these organisms were quantitatively determined by broth dilution assay. Serial dilutions were prepared in chemically defined medium in a range from 100 to 0.01 μg/ml. The minimal Inhibitory Concentration (MIC) was recorded as the highest dilution of compound which prevented visible growth of the pathogen following 24 hr incubation at 35°.

[22] = tested on: Pseudomonas; experiment: In vitro antibacterial, broth dilution assay, Pseudomonas; assay type: cell-based; conditions: clinical isolates, 24 hr at 35°
Experimental: as §1

[23] = tested on: Klebsiella; experiment: In vitro antibacterial, broth dilution assay, Klebsiella; assay type: cell-based; conditions: clinical isolates, 24 hr at 35°
Experimental: as §1

[24] = tested on: Enterobacter; experiment: In vitro antibacterial, broth dilution assay, Enterobacter; assay type: cell-based; conditions: clinical isolates, 24 hr at 35°
Experimental: as §1

[25] = tested on: Serratia; experiment: In vitro antibacterial, broth dilution assay, Serratia; assay type: cell-based; conditions: clinical isolates, 24 hr at 35°
Experimental: as §1

[26] = tested on: Providence; experiment: In vitro antibacterial, broth dilution assay, Providence; assay type: cell-based; conditions: clinical isolates, 24 hr at 35°
Experimental: as §1

[27] = tested on: Proteus; experiment: In vitro antibacterial, broth dilution assay, Proteus; assay type: cell-based; conditions: Proteus; clinical isolates; 24 hr at 35°; read-out: Average MIC
Experimental: as §1

[28] = tested on: Salmonella; experiment: In vitro antibacterial, broth dilution assay, Salmonella; assay type: cell-based; conditions: clinical isolates, 24 hr at 35°
Experimental: as §1

[29] = tested on: Citrobacter; experiment: In vitro antibacterial, broth dilution assay, Citrobacter; assay type: cell-based; conditions: clinical isolates, 24 hr at 35°
Experimental: as §1

[30] = tested on: Escherichis; experiment: In vitro antibacterial, broth dilution assay, Escherichia; assay type: cell-based; conditions: Escherichis; clinical isolates; 24 hr at 35°; read-out: Average MIC
Experimental: as §1

Nc1cc2c(ncn2[C@@H]2O[C@H](CO)[C@@H](O)[C@H]2O)c(=O)[nH]1 [Compound 4, 6-Amino-1-β-D-ribofuranosylimidazo[4,5-c]pyridin-4(5H)-one]
Virus rating (VR) ([1]; PIV/3, KB or RK-13 cells, VR >0.5 significant, <0.5 slight antiviral activity): 0.6
Virus rating (VR) [2]: 0.8
Virus rating (VR) [3]: 1.2
Virus rating (VR) [4]: 1.1
Virus rating (VR) [5]: 1.2
Virus rating (VR) [6]: 0.1
Virus rating (VR) [7]: 0.1
Virus rating (VR) [8]: 0.7
Virus rating (VR) ([9]; PIV/1, KB or RK-13 cells, VR >0.5 significant, <0.5 slight antiviral activity): 0.6
Virus rating (VR) [10]: 0.5
Virus rating (VR) [11]: 0.9
Virus rating (VR) [12]: 1.0
Virus rating (VR) [13]: 1.0
Virus rating (VR) [14]: 0.6
Virus rating (VR) [15]: 0.3

Nc1cc2ncn(C3CCCCO3)c2c(=O)[nH]1 (stereo not drawn) [Compound 13, 6-Amino-3-(tetrahydropyran-2-yl)imidazo[4,5-c]pyridin-4(5H)-one]
Virus rating (VR) [11]: 0.8

Nc1cc2ncn([C@@H]3O[C@H](COP(=O)(O)O)[C@@H](O)[C@H]3O)c2c(=O)[nH]1 [Compound 23, 6-Amino-3-β-D-ribofuranosylimidazo[4,5-c]pyridin-4(5H)-one-5'-phosphate]
% survival ([16]; challenge 1000 LD50's, 100 mg/kg × 1, oral): 100%

Gentamycin [reference compound]
% survival ([16]; challenge 1 LD50, 1 mg/kg × 2, SC): 100%
% survival ([16]; challenge 10 LD50's, 1 mg/kg × 2, SC): 100%
% survival ([16]; challenge 100 LD50's, 1 mg/kg × 2, SC): 90%
% survival ([16]; challenge 1000 LD50's, 1 mg/kg × 2, SC): 80%
% survival ([16]; challenge 10,000 LD50's, 1 mg/kg × 2, SC): 60%

N#CCc1[nH]cnc1C(N)=O [Compound 29, 4(5)-Cyanomethylimidazole-5(4)-carboxamide]
Virus rating (VR) [1]: 0.5
Virus rating (VR) [2]: 0.8
Virus rating (VR) [11]: 0.9
Virus rating (VR) [13]: 0.6

Nc1ccn([C@@H]2O[C@H](CO)[C@@H](O)[C@@H]2O)c(=O)n1 [Ara C, 1-β-D-arabinofuranosylcytosine, reference compound]
activity against respiratory disease viruses [17]: only active against a limited spectrum of viruses which does not include those causing respiratory diseases
21 day survivors [18]: 0/6
Average Mean Survival [18]: 17.33 days
T/C [18]: 2.11
ΔWt. [18]: -0.2 g

NC(=S)c1nc[nH]n1 [1,2,4-triazole-3thiocarboxamide]
antiviral activity [19]: significant antiviral activity

C[C@H]1O[C@@H](n2cnc3c(=O)[nH]c(N)cc32)[C@H](O)[C@@H]1O [Compound 16, 6-Amino-1-(5-deoxy-β-D-ribofuranosyl)imidazo[4,5-c]pyridine-4(5H)-one]
Virus rating (VR) [11]: 0.9

O=c1[nH]c(=O)n([C@H]2C[C@H](O)[C@@H](CO)O2)cc1I [IDU, 5-iodo-2' -deoxyuridine]
activity against respiratory disease viruses [17]: only active against a limited spectrum of viruses which does not include those causing respiratory diseases

Nc1cc2c(ncn2[C@@H]2O[C@H](COP(=O)(O)O)[C@@H](O)[C@H]2O)c(=O)[nH]1 [Compound 22, 6-Amino-1-β-D-ribofuranosylimidazo[4,5-c]pyridin-4(5H)-one 5'-phosphate]
Virus rating (VR) [20]: 1.0
Virus rating (VR) [1]: 0.8
Virus rating (VR) [9]: 0.3
Virus rating (VR) [11]: 0.9
Virus rating (VR) [13]: 0.9
Virus rating (VR) [14]: 0.7

NC(=O)c1nc[nH]n1 [1,2,4-triazole-3-carboxamide]
antiviral activity [19]: significant antiviral activity

N#CCc1c(C(N)=O)ncn1[C@@H]1O[C@H](COP(=O)(O)O)[C@@H](O)[C@H]1O [Compound 20, 5-Cyanomethyl-1-β-D-ribofuranosylimidazole-4-carboxamide 5'-phosphate]
Virus rating (VR) [20]: 0.5
Virus rating (VR) [11]: 0.8
Virus rating (VR) [14]: 0.3

Nc1ncnc2c1ncn2[C@@H]1O[C@H](CO)[C@@H](O)[C@@H]1O [ara-A, 9-β-D-arabino furanosyladenine]
activity against respiratory disease viruses [17]: only active against a limited spectrum of viruses which does not include those causing respiratory diseases

Nc1cc2ncn([C@@H]3O[C@H](CO)[C@@H](O)[C@H]3O)c2c(=O)[nH]1 [Compound 7, 6-amino-3-β-D-ribofuranosylimidazo[4,5-c]pyridin-4(5H)one]
MIC [21]: 100 µg/mL (≈ 354 µM)
MIC [22]: 100 µg/mL (≈ 354 µM)
MIC [23]: 8 µg/mL (≈ 28.3 µM)
MIC [24]: 10 µg/mL (≈ 35.4 µM)
MIC [25]: 5 µg/mL (≈ 17.7 µM)
MIC [26]: 15 µg/mL (≈ 53.1 µM)
MIC [27]: 10 µg/mL (≈ 35.4 µM)
MIC [28]: 5 µg/mL (≈ 17.7 µM)
MIC [29]: 5 µg/mL (≈ 17.7 µM)
MIC [30]: 0.5 µg/mL (≈ 1.77 µM)
% survival ([16]; challenge 1 LD50, 50 mg/kg × 2, oral): 100%
% survival ([16]; challenge 10 LD50's, 50 mg/kg × 2, oral): 100%
% survival ([16]; challenge 100 LD50's, 50 mg/kg × 2, oral): 100%
% survival ([16]; challenge 1000 LD50's, 50 mg/kg × 2, oral): 90%
% survival ([16]; challenge 10,000 LD50's, 50 mg/kg × 2, oral): 75%

NC(=O)c1ncn([C@@H]2O[C@H](CO)[C@@H](O)[C@H]2O)n1 [1-β-D-ribofuranosyl-1,2,4-triazole-3-carboxamide]
activity against respiratory disease viruses [17]: active against these respiratory disease viruses

N#CCc1c(C(N)=O)ncn1[C@@H]1O[C@H](CO)[C@@H](O)[C@H]1O [Compound 3, 5-Cyanomethyl-1-β-D-ribofuranosylimidazole-4-carboxamide]
Virus rating (VR) [20]: 1.3
Virus rating (VR) [11]: 0.6
